Assay results published in patent US20100249071A1, “Modulators of S1P and Methods of Making And Using” (Exelixis, Inc., priority 2009, published 2010).
Read-outs that look alike come from different tables or passages of the source.

Key:
S1P3 = target: T1, S1P3 (Homo sapiens, UniProt Q99500); assay: S1P3 Tango β-arrestin recruitment assay in HEK293 cells (Assay 5); type: cell-based
T1 construct: host or cells: HEK293 (transient transfection)
From the text: (§1) For the Tango™ β-arrestin recruitment assay, the cytoplasmic C-terminus of S1P1 was tethered to the tTA transcriptional activator with a linker that contains a cleavage site for the N1a protease from tobacco etch virus (TEV protease). The C-terminus of the human β-arrestin2 protein was fused to TEV protease. Binding of an agonist recruits the βl -arrestin-TEV fusion protein to the receptor resulting in cleavage of the linker and released of tTA to enter the nucleus and subsequently activated a tTA-dependent luciferase reporter gene.
Assay 2a: Frozen HEK293 cells transiently transfected with receptor cDNAs for S1P1 (Invitrogen) are thawed and suspended in 10 mL of Pro293a-CDM culture medium (Invitrogen) supplemented with 4 mM L-Glutamine (Invitrogen), 1× Pen/Strep (100 units/mL penicillin and 100 μg/mL streptomycin, Invitrogen) and 0.1% fatty acid free BSA (Sigma-Aldrich). Cells are added to the wells of a 384-well white opaque bottom assay plate (PerkinElmer) at 3,000-6,000 cells per well and the plate is incubated for approximately 4 h in a 37° C. incubator. Test compounds are tested at maximum concentrations of 10 μM for the agonist assays. Compounds are diluted in DMSO (10 concentration points, 3-fold each) and added to the assay plate at a 1% final DMSO concentration. For each compound, there are duplicate assay plates and each assay plate has duplicate wells per concentration point. The plate is incubated at 37° C. for 30 min. The efficacy control is 5 μM S1P (Avanti). Following agonist addition, the assay plates are incubated in a 37° C. incubator for 16-18 h. Luciferase assay reagent is added and luminescence measured in an EnVision plate reader (PerkinElmer). To determine agonist activity, percent activity is calculated as [(test compound−background)/(positive control−background)*100], where background is the luminescence of the DMSO alone control and the positive control is the luminescence from cells incubated with the efficacy control 5 μM S1P. The percent activities are plotted against compound concentration to determine EC50 using XLFit (IDBS).
This assay was conducted using the procedures described in Assay 2a, replacing S1P1 with S1P3.

[1] = target: T2, hS1P1R (hEdg1) membrane protein (Homo sapiens, UniProt P21453); assay: hS1P1R GTPγS binding assay (Assay 3a); type: biochemical
T2 construct: purchased Lonza
Method: Assay 3a: The hS1P1R GTPγS binding assay was carried out at room temperature in 96 well non-binding surface assay plates. The reaction in each well contained 4 μg hS1P1R (hEdg1) membrane protein (Lonza), 30 μM GDP, 0.1 nM [^35S]GTPγS, 0.25% fatty acid free BSA, and serially diluted hS1P1R agonist compound in 200 μL assay buffer (25 mM Tris-HCl PH 7.9, 100 mM NaCl, 3 mM MgCl2, and 0.2 mM EGTA). After one hour of incubation, 0.9 mg of WGA (Wheat Germ Agglutinin) SPA beads in 50 μL of assay buffer was added to each well. The SPA beads were spun down after an additional one hour incubation. The radioactivity of the bound GTPγS was counted by reading the assay plate using a MicroBeta.

[2] = target: T3, hS1PR5 (hEdg8) membrane protein (Homo sapiens, UniProt Q9H228); assay: hS1P5R GTPγS binding assay (Assay 4); type: biochemical
T3 construct: expressed in transfected cells; host or cells: CHO
Method: The hS1PR5 GTPγS binding assay was carried out at room temperature in 96-well non-binding surface assay plates. The reaction in each well contained 5 μg hS1PR5 (hEdg8) membrane protein from CHO cells expressing hS1PR5, 30 μM GDP, 0.1 nM [^35S]GTPγS, 0.25% fatty acid free BSA, and serially-diluted Compound of the Invention in 200 μL assay buffer (25 mM Tris-HCl PH 7.9, 100 mM NaCl, 3 mM MgCl2, and 0.2 mM EGTA). After one hour of incubation, 0.9 mg of WGA (Wheat Germ Agglutinin) SPA beads in 50 μL of assay buffer was added to each well. The SPA beads were spun down after an additional one hour incubation. The radioactivity of the bound GTPγS was counted by reading the assay plate using a MicroBeta.

S1P1 = target: T4, S1P1 (Homo sapiens, UniProt P21453); assay: Tango β-arrestin recruitment assay in U2OS cells (Assay 2b); type: cell-based
T4 construct: host or cells: U2OS
From the text: as §1
Assay 2b: Alternatively, U2OS cells expressing the reporter gene and S1P1 (Invitrogen) were added to the wells of a 384-well white opaque bottom assay plate (PerkinElmer) at […]. The cells were serum starved for 48 h in Freestyle medium (Invitrogen). Test compounds were tested at maximum concentrations of 1 μM for the agonist assay. Compounds were diluted in DMSO (10 concentration points, 3-fold each) and added to the assay plate at a 1% final DMSO concentration. The efficacy control was 1 μM S1P (Avanti). For each compound, there were duplicate assay plates and each assay plate had duplicate wells per concentration point. The plate was incubated overnight at 37° C. The GeneBLAzer β-lactamase assay reagent (Invitrogen) was added and the plates were incubated for an additional 2 h at room temperature. Fluorescence was measured using an EnVision plate reader (PerkinElmer, Waltham, Mass.) at an excitation wavelength of 409 nm and emission wavelengths of 460 nm and 530 nm. The emission intensity at each wavelength was background subtracted against wells containing medium only and the F460 nm/F530 nm ratio determined for each concentration of the test compounds. Percent activity was calculated as [(test compound ratio−DMSO ratio)/(positive control ratio−DMSO ratio)*100], where the positive control and DMSO ratios are from cells incubated with the efficacy control 1 μM S1P and 1% DMSO, respectively. The percent activities were plotted against compound concentration to determine EC50 using XLFit (IDBS).

T1 sequence (P32121 whole entry): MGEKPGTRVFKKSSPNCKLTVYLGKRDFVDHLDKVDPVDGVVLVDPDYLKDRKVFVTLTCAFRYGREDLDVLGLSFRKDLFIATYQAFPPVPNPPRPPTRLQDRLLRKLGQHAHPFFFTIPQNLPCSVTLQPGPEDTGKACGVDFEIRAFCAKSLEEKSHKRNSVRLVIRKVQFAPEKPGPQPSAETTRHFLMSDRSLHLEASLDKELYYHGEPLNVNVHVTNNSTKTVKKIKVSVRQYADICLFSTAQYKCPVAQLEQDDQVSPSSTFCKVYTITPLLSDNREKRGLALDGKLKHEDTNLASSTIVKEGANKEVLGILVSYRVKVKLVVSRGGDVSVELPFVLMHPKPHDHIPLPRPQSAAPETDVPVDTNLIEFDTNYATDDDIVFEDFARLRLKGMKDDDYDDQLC
T1 sequence (Q99500 whole entry): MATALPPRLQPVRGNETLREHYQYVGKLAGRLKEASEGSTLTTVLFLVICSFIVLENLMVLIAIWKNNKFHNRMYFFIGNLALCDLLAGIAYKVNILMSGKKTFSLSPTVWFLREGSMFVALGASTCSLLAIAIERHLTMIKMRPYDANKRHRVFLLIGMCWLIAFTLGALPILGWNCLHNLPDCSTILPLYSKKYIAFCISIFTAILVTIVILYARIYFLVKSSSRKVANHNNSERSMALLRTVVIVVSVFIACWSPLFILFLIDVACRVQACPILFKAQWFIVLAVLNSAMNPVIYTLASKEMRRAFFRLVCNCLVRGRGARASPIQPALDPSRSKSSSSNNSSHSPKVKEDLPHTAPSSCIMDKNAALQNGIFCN
T4 sequence (P32121 whole entry): as the sequence (P32121 whole entry) above
T4 sequence (P21453 whole entry): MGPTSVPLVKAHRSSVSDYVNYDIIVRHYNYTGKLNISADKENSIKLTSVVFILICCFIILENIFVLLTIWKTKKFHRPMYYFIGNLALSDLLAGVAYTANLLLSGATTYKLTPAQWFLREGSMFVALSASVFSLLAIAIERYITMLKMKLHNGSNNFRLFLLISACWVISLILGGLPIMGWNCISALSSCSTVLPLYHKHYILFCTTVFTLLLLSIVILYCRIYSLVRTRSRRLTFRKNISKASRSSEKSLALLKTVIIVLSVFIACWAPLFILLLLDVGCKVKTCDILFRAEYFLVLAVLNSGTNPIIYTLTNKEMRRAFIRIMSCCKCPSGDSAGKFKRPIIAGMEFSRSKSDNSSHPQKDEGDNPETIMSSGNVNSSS
T3 sequence (Q9H228 whole entry): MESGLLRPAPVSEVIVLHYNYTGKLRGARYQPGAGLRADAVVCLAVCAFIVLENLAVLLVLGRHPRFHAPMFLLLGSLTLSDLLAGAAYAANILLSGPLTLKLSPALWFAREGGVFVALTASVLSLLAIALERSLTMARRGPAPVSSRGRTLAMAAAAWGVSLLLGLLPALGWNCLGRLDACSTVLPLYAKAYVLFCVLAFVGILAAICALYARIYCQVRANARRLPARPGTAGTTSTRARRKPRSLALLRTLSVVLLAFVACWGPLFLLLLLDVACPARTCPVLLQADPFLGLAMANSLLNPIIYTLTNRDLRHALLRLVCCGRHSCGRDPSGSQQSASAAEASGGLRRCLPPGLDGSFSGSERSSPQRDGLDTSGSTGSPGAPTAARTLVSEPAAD
T2 sequence (P21453 whole entry): as the sequence (P21453 whole entry) above

CC(C)Oc1ccc(-c2nnc(-c3cc(F)c(OC[C@H](N)COP(=O)(O)O)cc3Cl)s2)cc1Cl [Entry 13, (2S)-2-amino-3-{[5-chloro-4-(5-{3-chloro-4-[(1-methylethyl)oxy]phenyl}-1,3,4-thiadiazol-2-yl)-2-fluorophenyl]oxy}propyl dihydrogen phosphate]
EC50 (S1P3; read-out: Assay 5 EC50): ≤ 250 nM
EC50 [1]: ≤ 10 nM
EC50 [2]: ≤ 10 nM
EC50 (S1P1; read-out: Assay 2b EC50): ≤ 10 nM

CC(C)Oc1ccc(-c2nnc(-c3cc(F)c(OC[C@@H](N)COP(=O)(O)O)cc3Cl)s2)cc1Br [Entry 12, (2R)-2-amino-3-{[4-(5-{3-bromo-4-[(1-methylethyl)oxy]phenyl}-1,3,4-thiadiazol-2-yl)-5-chloro-2-fluorophenyl]oxy}propyl dihydrogen phosphate]
EC50 (S1P3; * = rEC50 measured rather than EC50, read-out: Assay 5 rEC50 (relative EC50, cells marked *)): ≤ 250 nM
EC50 [1]: ≤ 10 nM
EC50 [2]: ≤ 10 nM
EC50 (S1P1; read-out: Assay 2b EC50): ≤ 10 nM

CC(C)Oc1ccc(-c2nnc(-c3cc(F)c(OC[C@H](N)CO)cc3Cl)s2)nc1Cl [Entry 22, (2R)-2-amino-3-{[5-chloro-4-(5-{6-chloro-5-[(1-methylethyl)oxy]pyridin-2-yl}-1,3,4-thiadiazol-2-yl)-2-fluorophenyl]oxy}propan-1-ol]
EC50 (S1P3; read-out: Assay 5 EC50): > 10000 nM
EC50 [1]: 10 to 50 nM
EC50 [2]: 50 to 250 nM
EC50 (S1P1; read-out: Assay 2b EC50): 10 to 50 nM

CC(C)Cc1ccc(-c2nnc(-c3cc(F)c(OC[C@H](N)CO)cc3Cl)s2)cc1 [Entry 3, (2R)-2-amino-3-[(5-chloro-2-fluoro-4-{5-[4-(2-methylpropyl)phenyl]-1,3,4-thiadiazol-2-yl}phenyl)oxy]propan-1-ol]
EC50 (S1P3; read-out: Assay 5 EC50): > 10000 nM
EC50 [1]: 250 to 2800 nM
EC50 [2]: 250 to 2800 nM
EC50 (S1P1; read-out: Assay 2b EC50): 50 to 250 nM

CC(C)N(C)c1cc(-c2nnc(-c3cc(F)c(OC[C@@H](N)CO)cc3Cl)s2)cc(Cl)n1 [Entry 31, (2S)-2-amino-3-{[5-chloro-4-(5-{2-chloro-6-[methyl(1-methylethyl)amino]pyridin-4-yl}-1,3,4-thiadiazol-2-yl)-2-fluorophenyl]oxy}propan-1-ol]
EC50 (S1P3; read-out: Assay 5 EC50): ≤ 250 nM
EC50 [1]: 50 to 250 nM
EC50 (S1P1; read-out: Assay 2b EC50): ≤ 10 nM

CC(C)Oc1ccc(-c2nnc(-c3cc(F)c(OC[C@@H](N)[C@H](C)O)cc3Cl)s2)cc1C#N [Entry 55, 5-[5-(4-{[(2R,3S)-2-amino-3-hydroxybutyl]oxy}-2-chloro-5-fluorophenyl)-1,3,4-thiadiazol-2-yl]-2-[(1-methylethyl)oxy]benzonitrile]
EC50 (S1P3; read-out: Assay 5 EC50): ≤ 250 nM
EC50 [1]: ≤ 10 nM
EC50 [2]: ≤ 10 nM
EC50 (S1P1; read-out: Assay 2b EC50): ≤ 10 nM

Cc1cc(-c2nnc(-c3cc(F)c(OC[C@H](N)[C@H](C)OP(=O)(O)O)cc3Cl)s2)ccc1OC(C)C [Entry 104, (1S,2S)-2-amino-3-{[5-chloro-2-fluoro-4-(5-{3-methyl-4-[(1-methylethyl)oxy]phenyl}-1,3,4-thiadiazol-2-yl)phenyl]oxy}-1-methylpropyl dihydrogen phosphate]
EC50 (S1P3; read-out: Assay 5 EC50): > 250 nM
EC50 [2]: ≤ 10 nM
EC50 (S1P1; * = rEC50 measured rather than EC50, read-out: Assay 2b rEC50 (relative EC50, cells marked *)): ≤ 10 nM

Cc1cc(NC(C)C)cc(-c2nnc(-c3cc(F)c(OC[C@H](N)[C@H](C)O)cc3Cl)s2)n1 [Entry 106, (2S,3S)-3-amino-4-(5-chloro-2-fluoro-4-{5-[6-methyl-4-(propan-2-ylamino)pyridin-2-yl]-1,3,4-thiadiazol-2-yl}phenoxy)butan-2-ol]
EC50 (S1P3; read-out: Assay 5 EC50): > 250 nM
EC50 [2]: 50 to 250 nM
EC50 (S1P1; read-out: Assay 2b EC50): 50 to 250 nM

CC(C)Oc1ccc(-c2nnc(-c3cc(F)c(OC[C@@H](N)CO)cc3Cl)s2)nc1Cl [Entry 33, (2S)-2-amino-3-{[5-chloro-4-(5-{6-chloro-5-[(1-methylethyl)oxy]pyridin-2-yl}-1,3,4-thiadiazol-2-yl)-2-fluorophenyl]oxy}propan-1-ol]
EC50 (S1P3; read-out: Assay 5 EC50): ≤ 250 nM
EC50 [1]: 10 to 50 nM
EC50 (S1P1; read-out: Assay 2b EC50): ≤ 10 nM

CC(C)Oc1ccc(-c2nnc(-c3ccc(OC[C@H](N)CO)cc3Cl)s2)cc1Cl [Entry 34, (2R)-2-amino-3-{[3-chloro-4-(5-{3-chloro-4-[(1-methylethyl)oxy]phenyl}-1,3,4-thiadiazol-2-yl)phenyl]oxy}propan-1-ol]
EC50 (S1P3; read-out: Assay 5 EC50): > 10000 nM
EC50 [1]: 10 to 50 nM
EC50 (S1P1; read-out: Assay 2b EC50): 50 to 250 nM

CC(C)Oc1ccc(-c2nnc(-c3cc(F)c(OCC(N)CO)cc3Cl)s2)nc1Cl (centres unmarked) [Entry 14, 2-amino-3-{[5-chloro-4-(5-{6-chloro-5-[(1-methylethyl)oxy]pyridin-2-yl}-1,3,4-thiadiazol-2-yl)-2-fluorophenyl]oxy}propan-1-ol]
EC50 (S1P3; read-out: Assay 5 EC50): ≤ 250 nM
EC50 [1]: 10 to 50 nM
EC50 (S1P1; read-out: Assay 2b EC50): ≤ 10 nM

N[C@H](CO)COc1cc(Cl)c(-c2nnc(-c3cc(Cl)cc(Cl)c3)s2)cc1F [Entry 92, (2R)-2-amino-3-({5-chloro-4-[5-(3,5-dichlorophenyl)-1,3,4-thiadiazol-2-yl]-2-fluorophenyl}oxy)propan-1-ol]
EC50 (S1P3; read-out: Assay 5 EC50): > 10000 nM
EC50 [1]: 250 to 2800 nM
EC50 (S1P1; read-out: Assay 2b EC50): 250 to 2800 nM

N[C@H](CO)COc1cc(Cl)c(-c2nnc(-c3cc(Br)cc(OC(F)(F)F)c3)s2)cc1F [Entry 28, (2R)-2-amino-3-{[4-(5-{3-bromo-5-[(trifluoromethyl)oxy]phenyl}-1,3,4-thiadiazol-2-yl)-5-chloro-2-fluorophenyl]oxy}propan-1-ol]
EC50 (S1P3; read-out: Assay 5 EC50): > 10000 nM
EC50 [1]: 50 to 250 nM
EC50 (S1P1; read-out: Assay 2b EC50): 50 to 250 nM

Cc1nc(-c2nnc(-c3cc(F)c(OC[C@H](N)[C@H](C)O)cc3Cl)s2)ccc1NC(C)C [Entry 105, (2S,3S)-3-amino-4-(5-chloro-2-fluoro-4-{5-[6-methyl-5-(propan-2-ylamino)pyridin-2-yl]-1,3,4-thiadiazol-2-yl}phenoxy)butan-2-ol]
EC50 (S1P3; read-out: Assay 5 EC50): > 250 nM
EC50 [2]: 50 to 250 nM
EC50 (S1P1; read-out: Assay 2b EC50): 50 to 250 nM

CC(C)Oc1c(Cl)cc(-c2nnc(-c3cc(F)c(OC[C@H](N)CO)cc3Cl)s2)cc1Cl [Entry 26, (2R)-2-amino-3-{[5-chloro-4-(5-{3,5-dichloro-4-[(1-methylethyl)oxy]phenyl}-1,3,4-thiadiazol-2-yl)-2-fluorophenyl]oxy}propan-1-ol]
EC50 [1]: 50 to 250 nM
EC50 [2]: 250 to 2800 nM
EC50 (S1P1; read-out: Assay 2b EC50): 250 to 2800 nM

CC(C)N(C)c1ccc(-c2nnc(-c3cc(F)c(OCC(N)CO)cc3Cl)s2)cn1 (centres unmarked) [Entry 36, 2-amino-3-{[5-chloro-2-fluoro-4-(5-{6-[methyl(1-methylethyl)amino]pyridin-3-yl}-1,3,4-thiadiazol-2-yl)phenyl]oxy}propan-1-ol]
EC50 (S1P3; read-out: Assay 5 EC50): ≤ 250 nM
EC50 [1]: 250 to 2800 nM
EC50 (S1P1; read-out: Assay 2b EC50): ≤ 10 nM
